Results on three compounds are retold here after patent publication US8211479B2, “Combinations of vasoactive substances with estrogens and their use in the treatment of female sexual dysfunctions” (Indena S.p.A., priority 2007, dated 2012).

For one test, the target named is PDE5A1 (Homo sapiens, UniProt O76074).
Test [1] concerns arterioles and precapillary arteries. The following applies: topically administered; increasing blood flow and tissue perfusion; cited from earlier work.

Turning to `COc1ccc(-c2oc3c(CC=C(C)C)c(OCCO)cc(O)c3c(=O)c2OCCO)cc1` [Compound 1, 3,7-O-di-(2-hydroxyethyl)icaritin], the “inhibition of phosphodiesterase cGMP (in words)” value against PDE5A1 is recorded as “powerful inhibitors”.
Consider `COc1ccc(-c2oc3c(CC=C(C)C)c(OCCO)cc(O)c3c(=O)c2O[C@@H]2O[C@@H](C)[C@H](O)[C@@H](O)[C@H]2O)cc1` [Compound 2, 7-O-hydroxyethyl-icariside II], for which the “inhibition of phosphodiesterase cGMP (in words)” value on PDE5A1 is “powerful inhibitors”.
Regarding Visnadin, the “vasokinetic action on arterioles and precapillary arteries (in words)” value in test [1] is on record as “marked vasokinetic action”.
